Laboratory results from PubChem BioAssay AID2060623 (Molecular Pharmacology Branch, DTP, NCI, 2025).

System: 227483-062-R1-J1-PDC complex spheroids with HUVEC/MSC, viability
Assay: Anticancer human tumor 227483-062-R1-J1-PDC patient-derived pancreatic carcinoma cell line growth inhibition [CLK]
Settings: for viability, T/C: stronger effect = lower value
How it was run: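 Patient-derived tumor cells grown as complex spheroids with HUVEC endothelial cells and mesenchymal stem cells, treated with drug combinations. Concentrations descend in half-log steps from near clinical Cmax, or from 10 microM if Cmax unknown.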

[1] = curve of first compound, second compound 0.0316 µM
[2] = curve of first compound, second compound 0.1 µM
[3] = curve of first compound, second compound 0.316 µM
[4] = curve of first compound, second compound 1 µM
[5] = curve of first compound, second compound 3.16 µM
[6] = curve of first compound, second compound 10 µM
[7] = second compound 0.0316 µM, first compound 0.0316 µM
[8] = second compound 0.0316 µM, first compound 0.1 µM
[9] = second compound 0.0316 µM, first compound 0.316 µM
[10] = second compound 0.0316 µM, first compound 1 µM
[11] = second compound 0.0316 µM, first compound 3.16 µM
[12] = second compound 0.0316 µM, first compound 10 µM
[13] = second compound 0.1 µM, first compound 0.0316 µM
[14] = second compound 0.1 µM, first compound 0.1 µM
[15] = second compound 0.1 µM, first compound 0.316 µM
[16] = second compound 0.1 µM, first compound 1 µM
[17] = second compound 0.1 µM, first compound 3.16 µM
[18] = second compound 0.1 µM, first compound 10 µM
[19] = second compound 0.316 µM, first compound 0.0316 µM
[20] = second compound 0.316 µM, first compound 0.1 µM
[21] = second compound 0.316 µM, first compound 0.316 µM
[22] = second compound 0.316 µM, first compound 1 µM
[23] = second compound 0.316 µM, first compound 3.16 µM
[24] = second compound 0.316 µM, first compound 10 µM
[25] = second compound 1 µM, first compound 0.0316 µM
[26] = second compound 1 µM, first compound 0.1 µM
[27] = second compound 1 µM, first compound 0.316 µM
[28] = second compound 1 µM, first compound 1 µM
[29] = second compound 1 µM, first compound 3.16 µM
[30] = second compound 1 µM, first compound 10 µM
[31] = second compound 3.16 µM, first compound 0.0316 µM
[32] = second compound 3.16 µM, first compound 0.1 µM
[33] = second compound 3.16 µM, first compound 0.316 µM
[34] = second compound 3.16 µM, first compound 1 µM
[35] = second compound 3.16 µM, first compound 3.16 µM
[36] = second compound 3.16 µM, first compound 10 µM
[37] = second compound 10 µM, first compound 0.0316 µM
[38] = second compound 10 µM, first compound 0.1 µM
[39] = second compound 10 µM, first compound 0.316 µM
[40] = second compound 10 µM, first compound 1 µM
[41] = second compound 10 µM, first compound 3.16 µM
[42] = second compound 10 µM, first compound 10 µM
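Further: spheroids exposed to compounds for seven days before readout.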
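Wherever viability, T/C is given: percent of DMSO vehicle control luminescence as 100% viability.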

Work on CCCS(=O)(=O)Nc1ccc(F)c(C(=O)c2c[nH]c3ncc(-c4ccc(Cl)cc4)cc23)c1F + CNC(=O)c1ccc(Nc2nc(OC3CCCC3)c3c(-c4ccc5nc(C)oc5c4)c[nH]c3n2)c(OC)c1 yielded an IC50 [1] of over 10 µM, an IC50 [2] of over 10 µM and an IC50 [3] of 9.22 µM. The IC50 [4] was 7.06 µM, the IC50 [5] was 0.241 µM and the IC50 [6] was under 0.0316 µM. For the same compound, the viability, T/C [7] was 87.8%, the viability, T/C [8] was 94% and the viability, T/C [9] was 96.5%. The viability, T/C [10] was 101%, the viability, T/C [11] was 105% and the viability, T/C [12] was 66.2%. It also gave a viability, T/C [13] of 102%, a viability, T/C [14] of 101% and a viability, T/C [15] of 107%. The viability, T/C [16] was 108%, the viability, T/C [17] was 114% and the viability, T/C [18] was 56.2%. For the same compound, the viability, T/C [19] was 78.2%, the viability, T/C [20] was 93.2% and the viability, T/C [21] was 96%. The viability, T/C [22] was 118%, the viability, T/C [23] was 126% and the viability, T/C [24] was 46%. The viability, T/C [25] was 64.7%, the viability, T/C [26] was 80% and the viability, T/C [27] was 84.1%. It also gave a viability, T/C [28] of 85.7%, a viability, T/C [29] of 85.8% and a viability, T/C [30] of 36.9%. The viability, T/C [31] was 53.1%, the viability, T/C [32] was 52.6% and the viability, T/C [33] was 49.6%. The viability, T/C [34] was 36.1%, the viability, T/C [35] was 28.1% and the viability, T/C [36] was 24.7%. It also gave a viability, T/C [37] of 39%, a viability, T/C [38] of 40.2% and a viability, T/C [39] of 45.1%. For the same compound, the viability, T/C [40] was 35.5%, the viability, T/C [41] was 33.5% and the viability, T/C [42] was 24.3%.

Work on CC(C)CC(NC(=O)C(Cc1ccccc1)NC(=O)c1cnccn1)B(O)O (stereo not drawn) + CNC(=O)c1ccc(Nc2nc(OC3CCCC3)c3c(-c4ccc5nc(C)oc5c4)c[nH]c3n2)c(OC)c1 yielded an IC50 [1] of 0.00153 µM, an IC50 [2] of 0.00164 µM and an IC50 [3] of 0.00139 µM. For the same compound, the IC50 [4] was under 0.000949 µM, the IC50 [5] was under 0.000949 µM and the IC50 [6] was under 0.000949 µM. For the same compound, the viability, T/C (second compound 0.0316 µM, first compound 0.000949 µM) was 84%, the viability, T/C (second compound 0.0316 µM, first compound 0.003 µM) was 1.62% and the viability, T/C (second compound 0.0316 µM, first compound 0.00949 µM) was 0.49%. It also gave a viability, T/C (second compound 0.0316 µM, first compound 0.03 µM) of 1.29%, a viability, T/C (second compound 0.0316 µM, first compound 0.0949 µM) of 0.77% and a viability, T/C (second compound 0.0316 µM, first compound 0.3 µM) of 1.96%. The viability, T/C (second compound 0.1 µM, first compound 0.000949 µM) was 94.3%, the viability, T/C (second compound 0.1 µM, first compound 0.003 µM) was 1.2% and the viability, T/C (second compound 0.1 µM, first compound 0.00949 µM) was 1.56%. The viability, T/C (second compound 0.1 µM, first compound 0.03 µM) was 0.47%, the viability, T/C (second compound 0.1 µM, first compound 0.0949 µM) was 0.71% and the viability, T/C (second compound 0.1 µM, first compound 0.3 µM) was 0.48%. For the same compound, the viability, T/C (second compound 0.316 µM, first compound 0.000949 µM) was 74.2%, the viability, T/C (second compound 0.316 µM, first compound 0.003 µM) was 0.82% and the viability, T/C (second compound 0.316 µM, first compound 0.00949 µM) was 0.43%. The viability, T/C (second compound 0.316 µM, first compound 0.03 µM) was 0.97%, the viability, T/C (second compound 0.316 µM, first compound 0.0949 µM) was 0.43% and the viability, T/C (second compound 0.316 µM, first compound 0.3 µM) was 0.68%. The viability, T/C (second compound 1 µM, first compound 0.000949 µM) was 42.7%, the viability, T/C (second compound 1 µM, first compound 0.003 µM) was 0.52% and the viability, T/C (second compound 1 µM, first compound 0.00949 µM) was 0.29%. For the same compound, the viability, T/C (second compound 1 µM, first compound 0.03 µM) was 0.28%, the viability, T/C (second compound 1 µM, first compound 0.0949 µM) was 1.45% and the viability, T/C (second compound 1 µM, first compound 0.3 µM) was 0.23%. For the same compound, the viability, T/C (second compound 3.16 µM, first compound 0.000949 µM) was 26.4%, the viability, T/C (second compound 3.16 µM, first compound 0.003 µM) was 0.37% and the viability, T/C (second compound 3.16 µM, first compound 0.00949 µM) was 0.79%. For the same compound, the viability, T/C (second compound 3.16 µM, first compound 0.03 µM) was 0.21%, the viability, T/C (second compound 3.16 µM, first compound 0.0949 µM) was 1.01% and the viability, T/C (second compound 3.16 µM, first compound 0.3 µM) was 0.26%. It also gave a viability, T/C (second compound 10 µM, first compound 0.000949 µM) of 17%, a viability, T/C (second compound 10 µM, first compound 0.003 µM) of 0.42% and a viability, T/C (second compound 10 µM, first compound 0.00949 µM) of 0.24%. The viability, T/C (second compound 10 µM, first compound 0.03 µM) was 0.26%, the viability, T/C (second compound 10 µM, first compound 0.0949 µM) was 1.09% and the viability, T/C (second compound 10 µM, first compound 0.3 µM) was 0.3%.

Nc1ccccc1NC(=O)c1ccc(CNC(=O)OCc2cccnc2)cc1 + CN1CCN(c2cc(C(=O)Nc3cc4cc(-c5cnn(C)c5)ccc4cn3)ccn2)CC1 showed an IC50 [1] of over 10 µM, an IC50 [2] of 1.04 µM and an IC50 [3] of under 0.0316 µM. It also gave an IC50 [4] of under 0.0316 µM, an IC50 [5] of under 0.0316 µM and an IC50 [6] of under 0.0316 µM. It also gave a viability, T/C [7] of 106%, a viability, T/C [8] of 108% and a viability, T/C [9] of 107%. For the same compound, the viability, T/C [10] was 126%, the viability, T/C [11] was 131% and the viability, T/C [12] was 51.6%. For the same compound, the viability, T/C [13] was 63.7%, the viability, T/C [14] was 76% and the viability, T/C [15] was 57.4%. The viability, T/C [16] was 48.6%, the viability, T/C [17] was 36.9% and the viability, T/C [18] was 17.1%. For the same compound, the viability, T/C [19] was 4.44%, the viability, T/C [20] was 6.25% and the viability, T/C [21] was 7.44%. It also gave a viability, T/C [22] of 3.95%, a viability, T/C [23] of 1.6% and a viability, T/C [24] of 1.34%. For the same compound, the viability, T/C [25] was 2.7%, the viability, T/C [26] was 1.53% and the viability, T/C [27] was 1.99%. It also gave a viability, T/C [28] of 2.47%, a viability, T/C [29] of 1.45% and a viability, T/C [30] of 1.58%. It also gave a viability, T/C [31] of 3.26%, a viability, T/C [32] of 4.66% and a viability, T/C [33] of 2.26%. The viability, T/C [34] was 2.68%, the viability, T/C [35] was 2.71% and the viability, T/C [36] was 2.41%. The viability, T/C [37] was 3.24%, the viability, T/C [38] was 1.86% and the viability, T/C [39] was 2.94%. It also gave a viability, T/C [40] of 2.31%, a viability, T/C [41] of 2.71% and a viability, T/C [42] of 1.85%.

With CN1CCN(c2cc(C(=O)Nc3cc4cc(-c5cnn(C)c5)ccc4cn3)ccn2)CC1 the viability, T/C (compound 0.0316 µM) was 95.7% [middle of 12 runs], the viability, T/C (compound 0.1 µM) was 62.8% [middle of 12 runs] and the viability, T/C (compound 0.316 µM) was 5.79% [middle of 12 runs]. For the same compound, the viability, T/C (compound 1 µM) was 1.97% [middle of 12 runs], the viability, T/C (compound 3.16 µM) was 3.33% [middle of 12 runs] and the viability, T/C (compound 10 µM) was 2.87% [middle of 12 runs]. The IC50 (compound alone, run of 09/18/2023) was 129 nM [middle of 11 runs].
